Assay results from patent publication US20240183860A1, “Chimeric ABC Transporters and Screening Methods” (Genentech, Inc., priority 2021, published 2024).
Bridge positions count the residues as written; N and C are the ends. Square brackets hold non-standard residues; d marks the D form. Peptide text beside a SMILES is read from it. Bip = N[C@@H](Cc1ccc(-c2ccccc2)cc1)C(=O)O; NMeF = CN[C@@H](Cc1ccccc1)C(=O)O; NMeA = CN[C@@H](C)C(=O)O; Sar = CNCC(=O)O

Tests used:
[1] = biological target: T1, EcMsbA-chim5 (MsbA-chimera5) (Escherichia coli, UniProt P60752, D53T/D54Y/D60K/DEL268-292/DEL57-57/F265A/G55I/I169L/INS266[…]/INS66P/K49D/K58D/L171A/L263V/L51V/L52I/M159V/M67L/P68V/S164D/S62H/T59E/V63D/Y163E); experiment: biochemical; assay type: biochemical; conditions: ATPase; FIGS. 11D-E
T1 construct: FLAG (N); made in house; host or cells: E. coli Rosetta 2 (DE3), pET-52b vector
Experimental: (§1) The ATPase activity of MsbA was measured using a Transcreener ADP2 FP Assay (BellBrook Labs). […] The final condition for the reaction was MsbA enzyme, 50 μM ATP in 50 mM Tris pH 7.5, 10 mM MgCl2, 1% glycerol, 0.1% bovine gamma globulin, 1 mM dithiothreitol (DTT), 0.007% Brij-35 and 0.5% dimethylsulfoxide (DMSO). The following concentrations were used for each MsbA variant: 5 nM of EcMsbA, EnMsbA, KpMsbA and 80 nM PaMsbA reconstituted in amphipol, 15 nM EcMsbA and EcMsbA-chim5 in LMNG detergent, 22 nM EcMsbA and 27 nM EcMsbA-12G7 complex in aDDM detergent. The enzyme reaction was incubated for 1 hour at room temperature, then quenched by adding the Transcreener Detection Buffer. The IC50 was determined by fitting the inhibition dose-response curve with a nonlinear four-parameter inhibition model (GraphPad Prism).

E. coli MsbA (EcMsbA) = biological target: T2, E. coli MsbA (EcMsbA) (Escherichia coli, UniProt P60752); experiment: MsbA ATPase assay (Transcreener ADP2 FP); assay type: biochemical
T2 construct: FLAG (N); made in house; host or cells: E. coli (strain for the WT protein not restated)
Experimental: as §1

[2] = biological target: T3, EcMsbA-chim5 (MsbA-chimera5) (Escherichia coli, UniProt P60752, D53T/D54Y/D60K/DEL268-292/DEL57-57/F265A/G55I/I169L/INS266IAYAGNRVIHEDMRSGALIAFIAAL/INS66P/K49D/K58D/L171A/L263V/L51V/L52I/M159V/M67L/P68V/S164D/S62H/T59E/V63D/Y163E); experiment: biochemical; assay type: biochemical
T3 construct: FLAG (N); made in house; host or cells: E. coli Rosetta 2 (DE3), pET-52b vector
Experimental: as §1

[3] = biological target: T4, Pseudomonas aeruginosa MsbA (PaMsbA) (Pseudomonas aeruginosa, UniProt Q9HUG8); experiment: MsbA ATPase assay, amphipol-reconstituted homologue; assay type: biochemical
T4 construct: FLAG; made in house; host or cells: not restated ('similarly expressed')
T4 sequence (Q9HUG8 1-603): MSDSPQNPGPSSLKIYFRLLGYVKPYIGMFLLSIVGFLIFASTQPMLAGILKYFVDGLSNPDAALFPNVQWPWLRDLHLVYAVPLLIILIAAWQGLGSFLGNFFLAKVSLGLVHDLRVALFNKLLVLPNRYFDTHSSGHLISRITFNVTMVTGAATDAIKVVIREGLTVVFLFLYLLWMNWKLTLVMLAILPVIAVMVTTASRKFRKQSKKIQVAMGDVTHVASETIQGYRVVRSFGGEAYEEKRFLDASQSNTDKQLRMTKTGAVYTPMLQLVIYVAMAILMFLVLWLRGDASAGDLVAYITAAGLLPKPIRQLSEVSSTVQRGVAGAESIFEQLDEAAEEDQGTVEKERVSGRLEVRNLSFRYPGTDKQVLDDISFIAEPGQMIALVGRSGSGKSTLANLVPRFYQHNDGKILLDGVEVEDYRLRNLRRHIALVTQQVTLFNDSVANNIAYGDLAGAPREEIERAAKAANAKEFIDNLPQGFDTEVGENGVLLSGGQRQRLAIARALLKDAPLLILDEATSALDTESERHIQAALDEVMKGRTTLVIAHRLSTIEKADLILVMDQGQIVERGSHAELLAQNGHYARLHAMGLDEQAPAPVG
Experimental: as §1

[4] = system: WT E. coli cells with an intact outer membrane (CFT073, UPEC WT); experiment: Cellular IC50 determination (BacTiter-Glo, 6 hours); assay type: cell-based, Escherichia coli
Experimental: The cellular IC50's of various bacterial strains (Table 2) were determined.
200 nL aliquots of eight 2-fold dilutions of each compound were dispensed in duplicate into 384-well plates using an Echo Liquid Handler (Labcyte). Strains were grown in cation-adjusted Mueller Hinton Broth with 0.002% Tween overnight for 16 hours, washed with PBS, resuspended at OD600=1 in cation-adjusted Mueller Hinton Broth with 0.002% Tween and 10% glycerol, and frozen in […] aliquots. For each experiment, aliquots were thawed on ice and diluted 1:1000 into cation-adjusted Mueller Hinton Broth with 0.002% Tween. 10 μL cells/well were added to 384-well plates containing compound. Plates were incubated for 6 hours at 37° C., then 10 μL BacTiter-Glo reagent (Promega) was added to each well and luminescence was measured. IC50's were calculated using Genedata Screener software.

[5] = system: imp E. coli (lptD(imp4213)), E. coli MsbA; experiment: Broth MIC assay; assay type: cell-based, Escherichia coli; conditions: Table 5 prints no unit; μM
Experimental: Broth MICs were determined in cation-adjusted Mueller-Hinton broth with 0.002% Tween-80, as previously described (Ho et al., 2018).

[6] = biological target: T5, E. coli MsbA-chimera5 (chimera of Escherichia coli MsbA and Magnetospira strain-QH-2 MsbA), P60752; experiment: cell-based or functional assay
T5 chain: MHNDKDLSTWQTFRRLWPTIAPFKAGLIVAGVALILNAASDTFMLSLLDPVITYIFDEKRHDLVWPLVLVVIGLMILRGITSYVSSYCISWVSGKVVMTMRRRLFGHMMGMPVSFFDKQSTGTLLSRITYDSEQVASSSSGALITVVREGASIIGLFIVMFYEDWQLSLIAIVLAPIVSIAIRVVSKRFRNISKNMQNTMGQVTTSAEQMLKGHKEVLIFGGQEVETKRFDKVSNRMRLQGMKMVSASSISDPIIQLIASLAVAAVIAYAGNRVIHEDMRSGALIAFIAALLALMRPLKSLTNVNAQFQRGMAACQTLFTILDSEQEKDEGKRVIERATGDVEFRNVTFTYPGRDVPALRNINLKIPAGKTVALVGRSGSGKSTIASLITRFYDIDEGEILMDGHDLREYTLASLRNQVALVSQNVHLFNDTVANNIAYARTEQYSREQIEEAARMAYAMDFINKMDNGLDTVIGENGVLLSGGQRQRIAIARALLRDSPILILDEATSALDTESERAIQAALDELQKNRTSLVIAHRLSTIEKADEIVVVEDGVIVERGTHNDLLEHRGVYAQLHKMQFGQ

[7] = biological target: Enterobacter cloacae MsbA (Enterobacter cloacae); experiment: cell-based or functional assay
[8] = biological target: T6, Escherichia coli MsbA (wild-type) (Escherichia coli), P60752; experiment: cell-based or functional assay
T6 chain: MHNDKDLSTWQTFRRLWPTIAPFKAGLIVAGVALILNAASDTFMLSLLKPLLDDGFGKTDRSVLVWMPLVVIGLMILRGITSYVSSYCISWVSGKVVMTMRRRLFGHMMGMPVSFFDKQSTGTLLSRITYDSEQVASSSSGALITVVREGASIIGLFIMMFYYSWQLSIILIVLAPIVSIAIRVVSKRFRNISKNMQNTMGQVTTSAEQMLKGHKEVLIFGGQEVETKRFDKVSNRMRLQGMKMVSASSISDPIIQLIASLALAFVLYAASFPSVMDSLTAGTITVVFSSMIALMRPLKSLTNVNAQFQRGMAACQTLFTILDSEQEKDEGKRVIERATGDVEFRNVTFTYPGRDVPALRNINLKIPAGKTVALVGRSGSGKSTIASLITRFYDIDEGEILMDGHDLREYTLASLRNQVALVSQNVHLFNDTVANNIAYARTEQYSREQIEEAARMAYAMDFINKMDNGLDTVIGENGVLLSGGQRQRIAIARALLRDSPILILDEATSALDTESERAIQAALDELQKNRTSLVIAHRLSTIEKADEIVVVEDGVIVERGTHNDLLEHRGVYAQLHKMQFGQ

[9] = biological target: Klebsiella pneumoniae MsbA (Klebsiella pneumoniae); experiment: cell-based or functional assay
[10] = biological target: T7, Pseudomonas aeruginosa MsbA (Pseudomonas aeruginosa), Q9HUG8; experiment: cell-based or functional assay
T7 chain: T4 sequence (Q9HUG8 1-603)

[11] = IC50 for inhibition of ATPase activity of MsbA, experiment of FIG. 3F / b233

With CC1CCN(CC(=O)Nc2ccc(C#N)nc2C(=O)c2ncccc2F)CC1 [Compound G758, N-(6-cyano-2-(3-fluoropicolinoyl)pyridin-3-yl)-2-(4-methylpiperidin-1-yl)acetamide, reference compound] the “sensitivity of MsbA-chim5 to previously identified small-molecule inhibitors” value [1] was “displayed sensitivity”.

CC(C)C[C@@H]1NC(=O)[C@H](Cc2c[nH]c3ccccc23)NC(=O)[C@H](Cc2c[nH]c3ccccc23)NC(=O)[C@H](Cc2ccccc2)NC(=O)CSC[C@@H](C(N)=O)NC(=O)[C@H](C(C)C)NC(=O)[C@H](Cc2ccccc2)N(C)C(=O)[C@H](Cc2c[nH]c3ccccc23)NC(=O)[C@H](Cc2c[nH]c3ccccc23)NC(=O)[C@H](CC(=O)O)NC(=O)CN(C)C(=O)[C@H](CC(=O)O)NC(=O)[C@H](CO)NC(=O)[C@H](Cc2c[nH]c3ccccc23)NC1=O [Compound G1119] ({CH2CO}-FWWLWSD[Sar]DWW[NMeF]VC-NH2; thioether N-14) gave an IC50 (E. coli MsbA (EcMsbA); [11]) of 0.005 µM.

CC(C)C[C@@H]1NC(=O)CNC(=O)[C@H](Cc2c[nH]c3ccccc23)NC(=O)[C@H](C)N(C)C(=O)[C@H](Cc2c[nH]c3ccccc23)NC(=O)[C@H](CC(C)C)NC(=O)[C@H](Cc2ccc(O)cc2)NC(=O)[C@H](CCCNC(=N)N)NC(=O)[C@H](Cc2ccccc2)NC(=O)CSC[C@@H](C(N)=O)NC(=O)[C@H](CC(N)=O)NC(=O)[C@H](CC(=O)O)NC(=O)[C@H](Cc2c[nH]c3ccccc23)NC(=O)[C@H](C(C)C)NC1=O [Compound G1122] ({CH2CO}-FRYLW[NMeA]WGLVWDNC-NH2; thioether N-14) was tested, and the IC50 (E. coli MsbA (EcMsbA); [11]) was 0.002 µM.

Work on CC(C)[C@@H]1NC(=O)[C@H](CCCNC(=N)N)NC(=O)[C@H](Cc2ccccc2)N(C)C(=O)[C@H](Cc2ccc(-c3ccccc3)cc2)NC(=O)[C@H](Cc2ccc(O)cc2)NC(=O)[C@H](C(C)C)NC(=O)[C@H](Cc2ccccc2)NC(=O)CSC[C@@H](C(N)=O)NC1=O [Compound G1365, ClAc-FVYBphMeFRVCNH2] ({CH2CO}-FVY[Bip][NMeF]RVC-NH2; thioether N-8) yielded an IC50 (E. coli MsbA (EcMsbA); ATPase inhibitory activity on WT EcMsbA, IC50, purified WT EcMsbA, FIG. 3D) of 1.3 µM, an IC50 (E. coli MsbA (EcMsbA); biochemical IC50, FIGS. 3G-L, 8-10 mer macrocycle series experiment) of 0.3 µM and an IC50 [2] greater than 5 µM. The IC50 [3] was 7.6 µM, the EC50 ([4]; dose response on imp MsbAWT, imp MsbA High and UPEC WT, b248: EC50 for wild-type E. coli cells, read-out: EC50, FIGS. 3G-L) was 20 µM and the IC50 ([4]; over the course of 6 hours, read-out: IC50, inhibition of growth of WT E. coli cells with an intact outer membrane) was roughly 20 µM. The “imp Strain MICs: imp, E.coli MsbA” value [5] was 12.5 µM.

B1: G1118 (peptide)
peptide: FWWLWDDVSWWFVC
modifications: not checked
B1 was tested, and the IC50, ATPase activity of purified MsbA-chim5 [6] was greater than 5 µM, the fold lower potency than on EcMsbA (ATPase) [6] was greater than 30 fold and the IC50, ATPase activity [7] was 0.24 µM. The IC50, ATPase activity of purified EcMsbA [8] was 0.11 µM, the IC50 for inhibition of ATPase activity of MsbA [8] was 0.005 µM and the minimum inhibitory concentration (MIC), E. coli cells with the lptD(imp4213) allele [8] was 210 mg/L. It also gave an IC50, ATPase activity [9] of 0.12 µM and an IC50, ATPase activity [10] of 3.1 µM.
